The record followed here is paper PMC6136712, “Ex vivo drug sensitivity testing as a means for drug repurposing in esophageal adenocarcinoma” (PLoS ONE, 2018).

The term EC50 denotes the midpoint of the concentration-response curve.

Where a name gives a salt, the structure may show the parent alone.

Common to all, as to format: cell-based, human
The test system of assay [1] is normal esophageal epithelium cell line EACN42. The experiment in a line: FDA library drug sensitivity testing (CellTiter-Glo, 72 h), normal control cells. Details: key to DSS: modified drug sensitivity score (DSSmod) from dose-response curve fit. The settings on record: EACN42 normal esophageal cells, 72 h; for DSS: drug sensitivity score; for EC50: cell viability (ATP), max test concentration 10μM. The method, then: The normal esophageal epithelium cell line EACN42 was established in the Capobianco laboratory. The cell lines was derived from human normal epithelium and immortalized using HPV E6-E7.
(§1) Drug sensitivity testing (DST) was performed as described previously. […] Individual drugs were dissolved in 100% DMSO and tested in duplicates starting at a maximal test concentration of 10μM then over a 20,000-fold concentration range to generate dose response curves. Wells with assay buffer containing DMSO served as negative controls. 1000 exponentially growing cells were seeded per well in 384-well micro-titer plates and incubated in the presence of compounds in a humidified environment at 37°C and 5% CO2. After 72 hours of treatment, cell viability was assessed by measuring ATP levels via bioluminescence (CellTiter-Glo, Promega) according to manufactures recommendations. Interpretation of curve parameters was performed according to the modified drug sensitivity scoring (DSSmod) function developed by Swords et al. […] Given in this way, the sDSSmod incorporated information on each drug’s potency, efficacy, effect range and therapeutic index, making it possible to prioritize compounds over multiple parameters using a single numerical metric. […] All calculations and scoring routines are implemented in MatLab and additional curve fitting and statistical analyses are performed in GraphPad prism.
On the technique in general: In ATP-based viability assays light output follows the ATP content of the culture.

For the next assay, the system named is OE33 cells. The experiment in a line: FDA library drug sensitivity testing (CellTiter-Glo, 72 h). The settings on record: OE33; sDSSmod = DSSmod (patient cells) - DSSmod (normal cells).
From the text: (§2) OE33, OE19 and SKGT2 human esophageal adenocarcinoma cell lines were obtained from the European Collection of Cell Culture ([…]). Flo1, EAC42 and EAC47 cells were established in the Capobianco Laboratory. EAC42 and EAC47 human esophageal adenocarcinoma cell lines are derived from patients undergoing surgery at the Miller School of Medicine, University of Miami. The Capobianco laboratory obtained written informed consent from all patients and approval from the Institutional Research Ethics Committee.
as §1

The next assay relates to SK-GT2 cells. The description is as above. The settings on record: SK-GT2; sDSSmod = DSSmod (patient cells) - DSSmod (normal cells).
From the text: as §2, §1

A further assay has as its system EAC42 cells. The description is as above. The settings on record: EAC42; sDSSmod = DSSmod (patient cells) - DSSmod (normal cells).
From the text: as §2, §1

The test system of a further assay is EAC47 cells. The assay is described as above. The settings on record: EAC47; sDSSmod = DSSmod (patient cells) - DSSmod (normal cells).
From the text: as §2, §1

In the case of `COc1ccccc1OCC(O)CN1CCN(CC(=O)Nc2c(C)cccc2C)CC1` (stereo not shown) [Ranolazine], the DSS in assay [1] is 0. In the assay on OE33 cells, this compound returned a sDSSmod of 25.89.
The matching figures for `CN(C)CCOc1ccc(/C(=C(/CCCl)c2ccccc2)c2ccccc2)cc1` [Toremifene Citrate]: 0 and 23.6335.
In the case of `O=S(=O)(O)CCS` [Mesna], the DSS in assay [1] is 0. Further, the sDSSmod in the assay with SK-GT2 cells was found to be 8.021.
`COc1cc([C@@H]2c3cc4c(cc3[C@@H](O[C@@H]3O[C@@H]5CO[C@@H](C)O[C@H]5[C@H](O)[C@H]3O)[C@H]3COC(=O)[C@H]23)OCO4)cc(OC)c1O` [Etoposide] returned an EC50 in assay [1] (Homo sapiens) above 10 µM. Moreover, in assay [1], the DSS was 4.68. For the same compound, the sDSSmod was 5.049 with EAC42 cells and 6.55 in the assay on OE33 cells.
The compound `CNC(=O)CN(CCN(CCN(CC(=O)[O-])CC(=O)NC)CC(=O)[O-])CC(=O)[O-].[Gd+3]` [Gadodiamide] gave a DSS in assay [1] of 0. The compound also had a sDSSmod in the assay with OE33 cells of 29.62.
As to Bacitracin zinc, the DSS in assay [1] stood at 0. For the same compound, the sDSSmod with OE33 cells was 17.07.
`S=c1[nH]cnc2nc[nH]c12` [Mercaptopurine] gave an EC50 in assay [1] (Homo sapiens) above 10 µM. The DSS in assay [1] worked out at 0.05. Also, the sDSSmod in the assay on EAC42 cells was 10.48; in the assay with EAC47 cells, 10.9.
As for `CO[C@H]1C[C@@H]2CC[C@@H](C)[C@@](O)(O2)C(=O)C(=O)N2CCCC[C@H]2C(=O)O[C@H]([C@H](C)C[C@@H]2CC[C@@H](OCCO)[C@H](OC)C2)CC(=O)[C@H](C)/C=C(\C)[C@@H](O)[C@@H](OC)C(=O)[C@H](C)C[C@H](C)/C=C/C=C/C=C/1C` [Everolimus], the response in assay [1] (Homo sapiens) was half-maximal at 9 µM (EC50). Further, the DSS in assay [1] is recorded as 7.57. Moreover, the sDSSmod is recorded as -5.697 with EAC47 cells, -5.493 with OE33 cells and -5.054 in the assay with SK-GT2 cells.
Take `O=c1c(-c2ccc(O)cc2)coc2cc(O)cc(O)c12` [Genistein]: in assay [1] (Homo sapiens), the EC50 was above 10 µM. This compound also registered a DSS in assay [1] of 0.04. Further, the figures for the sDSSmod in the assay with OE33 cells and in the assay with SK-GT2 cells were 5.079 and 5.117, respectively.
As for `C[C@@H](Oc1cc(-c2cnn(C3CCNCC3)c2)cnc1N)c1c(Cl)ccc(F)c1Cl` [Crizotinib], the midpoint of the response in assay [1] (Homo sapiens), the EC50, lay at 8.03 µM. This compound also came in with a sDSSmod with OE33 cells of 22.74.
On to `C#Cc1cccc(Nc2ncnc3cc(OCCOC)c(OCCO)cc23)c1.Cl` [Desmethyl Erlotinib], for which the DSS in assay [1] turned out to be 3.34. The sDSSmod stood at 8.648 with OE33 cells and 11.77 with SK-GT2 cells.
As for `Nc1ncn([C@@H]2O[C@H](CO)[C@@H](O)[C@H]2O)c(=O)n1` [Azacitidine], the DSS in assay [1] is 0. Moreover, the sDSSmod in the assay on OE33 cells amounted to 23.96.
Turning to `C[C@H](NC(=O)Cc1cc(F)cc(F)c1)C(=O)N[C@H](C(=O)OC(C)(C)C)c1ccccc1` [DAPT], the DSS in assay [1] is given as 0. The sDSSmod in the assay on SK-GT2 cells came to 13.54.
The like results for `CC(C)c1nc(CN(C)C(=O)N[C@@H](CCN2CCOCC2)C(=O)N[C@H](CC[C@H](Cc2ccccc2)NC(=O)OCc2cncs2)Cc2ccccc2)cs1` [Cobicistat] were, in that order, 0 and 7.685.
In the case of `NS(=O)(=O)OC[C@@H]1C[C@@H](n2ccc3c(N[C@H]4CCc5ccccc54)ncnc32)C[C@@H]1O` [MLN-4924], the EC50 in assay [1] (Homo sapiens) is above 10 µM. Besides, the DSS in assay [1] came to 0.51. Besides, the sDSSmod with EAC42 cells is reported as 17.05; in the assay on EAC47 cells, 10.87.
In assay [1], `Nc1nc(Cl)nc2c1ncn2[C@H]1C[C@H](O)[C@@H](CO)O1` [Cladribine] showed a DSS of 0.13. The results for the sDSSmod in the assay on EAC42 cells and in the assay on EAC47 cells were 7.959 and 5.947, respectively.
Regarding `CCCCCCNC(=O)n1cc(F)c(=O)[nH]c1=O` [Carmofur], the EC50 in assay [1] (Homo sapiens) turned out to be 0.71 µM. This compound also came in with a DSS in assay [1] of 4.76. This compound returned a sDSSmod in the assay with OE33 cells of 12.42.
The like results for `Nc1ccn([C@@H]2O[C@H](CO)[C@@H](O)[C@@H]2O)c(=O)n1` [Cytarabine] were, in that order, above 10 µM, 1.34 and 6.525.
In assay [1], `CN[C@H]1C[C@@H](N)[C@H](O)[C@@H](O[C@@H]2O[C@H](CO)[C@H](O)[C@@H]3OC4(O[C@H]23)O[C@H]([C@@H](N)CO)[C@H](O)[C@H](O)[C@H]4O)[C@@H]1O` (stereo partly shown) [Hygromycin B] had an EC50 of 7.77 µM and a DSS of 3.8.
`COc1cc2nccc(Oc3ccc(NC(=O)C4(C(=O)Nc5ccc(F)cc5)CC4)cc3)c2cc1OC` [Cabozantinib] registered a DSS in assay [1] of 0. In the assay with OE33 cells, this compound came in with a sDSSmod of 19.55.
For `O=c1[nH]cc(F)c(=O)[nH]1` [Adrucil], the EC50 in assay [1] (Homo sapiens) worked out at 0.92 µM. The same compound showed a DSS in assay [1] of 4.47. This compound also came in with a sDSSmod in the assay with OE33 cells of 10.56.
In assay [1] (Homo sapiens), `Nc1nc2c(c(=O)[nH]1)N(C=O)C(CNc1ccc(C(=O)N[C@@H](CCC(=O)O)C(=O)O)cc1)CN2` (stereo partly shown) [Leucovorin Calcium] gave a concentration giving a half-maximal response (EC50) of 0.09 µM. Also, the DSS in assay [1] stood at 0.04.
The compound `Nc1cccc2c1CN(C1CCC(=O)NC1=O)C2=O` (stereo not shown) [Lenalidomide] came in with a DSS in assay [1] of 0.
Still for that read-out and setting: for `CNC(=O)c1ccccc1Sc1ccc2c(/C=C/c3ccccn3)n[nH]c2c1` [Axitinib] the value was 0; for `C[C@]12CC[C@H](O)CC1=CC[C@@H]1[C@@H]2CC[C@]2(C)C(c3cccnc3)=CC[C@@H]12` [Abiraterone], 0.
Same read-out and setting: then `CCC1(c2ccc(N)cc2)CCC(=O)NC1=O` (stereo not shown) [Aminoglutethimide], with 0.
As to `Clc1ccc(C(c2ccccc2Cl)C(Cl)Cl)cc1` (stereo not shown) [Mitotane], the EC50 in assay [1] (Homo sapiens) amounted to 0.006 µM. In assay [1], this compound gave a DSS of 0.
With `CCOC(=O)[C@H](CCc1ccccc1)N[C@H]1CS[C@H](c2cccs2)CN(CC(=O)O)C1=O` [Temocapril HCl], in assay [1], the DSS came out at 0.
Still for that read-out and setting: then `C[C@@H](O[C@H]1OCCN(Cc2n[nH]c(=O)[nH]2)[C@H]1c1ccc(F)cc1)c1cc(C(F)(F)F)cc(C(F)(F)F)c1` [Aprepitant], with 0; and `COc1nc(N)nc2c1ncn2[C@@H]1O[C@H](CO)[C@@H](O)[C@@H]1O` [Nelarabine], with 0.
`Nc1nc(O)c2[nH]nnc2n1` [Azaguanine-8] showed a DSS in assay [1] of 2.04. The sDSSmod in the assay on EAC42 cells was 6.077; in the assay with OE33 cells, 8.322.
Regarding `O=c1oc2c(O)c(O)cc3c(=O)oc4c(O)c(O)cc1c4c23` [Ellagic acid], the DSS in assay [1] is 0. The compound also displayed a sDSSmod in the assay with OE33 cells of 7.542.
Turning to `O=C1[O][Pt]2([NH][C@@H]3CCCC[C@H]3[NH]2)[O]C1=O` [Oxaliplatin], in assay [1], the “treatment response in words” value is recorded as “minimal treatment effects” and the DSS came to 0.06.
On to `Nc1nc(CC(=O)Nc2ccc(CCNC[C@H](O)c3ccccc3)cc2)cs1` [Mirabegron], for which the EC50 in assay [1] (Homo sapiens) was 0.02 µM. The same compound gave a DSS in assay [1] of 0.
For the compound `CCCCC1C(=O)N(c2ccccc2)N(c2ccccc2)C1=O` [Phenylbutazone], the DSS in assay [1] amounted to 0.
As to `O=c1[nH]c(=O)n([C@H]2C[C@H](O)[C@@H](CO)O2)cc1F` [Floxuridine], in assay [1] (Homo sapiens), the response was half-maximal at 0.83 µM (EC50). For the same compound, the DSS in assay [1] is reported as 4.9. Further, the sDSSmod in the assay with EAC42 cells is reported as 40.61; with EAC47 cells it was 35.54; in the assay with OE33 cells, 13.67.
With `N#CC[C@H](C1CCCC1)n1cc(-c2ncnc3[nH]ccc23)cn1` [Ruxolitinib], the DSS in assay [1] was found to be 0.
